Assay results: patent publication US20210283099A1, “CDC7 KINASE INHIBITORS AND USES THEREOF” (SLOAN-KETTERING INSTITUTE FOR CANCER RESEARCH, priority 2010, published 2021)

Columns and labels:
[1] = tested on: HeLa; test: FACS and caspase-3 assay in HeLa cells; assay type: cell-based, human; details: for cell cycle profile: 24 hours (granaticin B 1 microM)
Method: FIGS. 23A-23C. Granaticin A and B are not cytotoxic to normal diploid cells: FIGS. 23A-23B: Granaticin B exposure is not cytotoxic to normal diploid cells. Either HeLa or RPE (retinal pigment epithelial cells, a normal human diploid cell line) cells were incubated in carrier control (DMSO) or granaticin B (1 microM) for 24 hours and samples were subjected to standard FACS analysis with the x-axis indicating DNA content (FIG. 23A). […] FIG. 23C: Granaticin A exposure is not cytotoxic to normal diploid cells. Either HeLa or RPE (retinal pigment epithelial cells, a normal diploid cell line) cells were incubated in carrier control (DMSO) or granaticin A for 24 hours and samples were subjected to standard FACS analysis with FL2 indicating DNA content.

[2] = tested on: HeLa S3 cells; test: Double thymidine block and release, FACS and morphology; assay type: cell-based, human; details: for morphologic appearance: 15 hours release from double thymidine block; for cell cycle progression by FACS: cells synchronized at the G1/S transition and released into compound
Method: FIG. 9. […] Synchronized cells (time zero) were released into media containing granaticin A for the indicated times and standard FACS analysis performed looking at DNA content.
FIG. 11. Cell cycle arrest in Hela S3 cells: Morphologic appearance of control (DMSO), granaticin A, and granaticin B treated HeLa S3 cells following 15 hours release from double thymidine block. […] The corresponding FACS profiles are shown.

[3] = tested on: PhALL3.1; test: Cytotoxicity assay (Alamar blue), patient leukemia sample; assay type: cell-based, human; details: for IC50: Homo sapiens, PhALL3.1
Method: (§1) FIGS. 16A-16B. Granaticin A and Granaticin B inhibit multiple tumor types: The indicated cell lines and primary patient samples were tested against the compounds listed in standard cytotoxicity assays (12 point dose response using Alamar blue reduction as an indicator of cell viability). Assays were done in triplicate and IC50 determinations were run in 12-point serial dilutions from […] to 5 nM. […] These include ras and EGFR gatekeeper mutation containing cell lines in addition to p53 mutant cell lines and other known chemotherapy resistant cell lines. Specifically, this included multi-drug resistance phenotype (MDR-overexpressing) cell lines from multiple hematologic and solid tumor cell lines. Table 1 highlights a series of primary patient leukemia samples-both acute and chronic and treatment naïve and refractory tested against granaticins A and B and Derivatives 1 and 2 (see Examples).
(§2) Table 1 highlights a series of primary patient leukemia samples-both acute and chronic and treatment naïve and refractory and the effect of granaticin A, granaticin B, derivative 1, and derivative 2 to inhibit cellular proliferation. […] The two starred samples represent serial samples taken from the same patients after they received 2-3 cycles of additional high dose salvage chemotherapy and indicate that although refractory to salvage chemotherapy, the Cdc7 pathway remains a potentially efficacious target as the sensitivity to these compounds remains unchanged. Importantly, each patient sample was resistant to the prior therapy received using this assay.

[4] = tested on: JURKAT E61; test: Cytotoxicity assay (Alamar blue); assay type: cell-based; details: Jurkat E6.1, Human Acute Lymphoblastic T-cell leukemia
Method: as §1

[5] = tested on: H2122; test: Cytotoxicity assay (Alamar blue); assay type: cell-based; details: NCI-H2122, human lung adenocarcinoma, G12C KRAS mutation, Q16L and C176F P53 mutations
Method: as §1

[6] = tested on: RORI; test: Cytotoxicity assay (Alamar blue); assay type: cell-based; details: Homo sapiens, Patient sample of relapsed/refractory AML with trisomy of chromosome #8
Method: as §1

[7] = tested on: MESO47; test: Cytotoxicity assay (Alamar blue); assay type: cell-based; details: human mesothelioma, WT-1 overexpression
Method: as §1

[8] = tested on: AML, primary refractory; test: Cytotoxicity assay (Alamar blue), patient leukemia sample; assay type: cell-based; details: Homo sapiens
Method: as §1, §2

[9] = tested on: AMMoL; test: as above; assay type: cell-based; details: Homo sapiens
Method: as §1, §2

[10] = tested on: ALL, Ph+; test: as above; assay type: cell-based; details: Homo sapiens
Method: as §1, §2

[11] = tested on: Biphenotypic acute leukemia 1; test: as above; assay type: cell-based; details: Homo sapiens
Method: as §1, §2

[12] = tested on: AML, primary refractory 1; test: as above; assay type: cell-based; details: Homo sapiens
Method: as §1, §2

[13] = tested on: AML, de novo; test: as above; assay type: cell-based; details: Homo sapiens
Method: as §1, §2

[14] = tested on: AML, relapsed; test: as above; assay type: cell-based; details: Homo sapiens
Method: as §1, §2

[15] = tested on: AML, primary refractory 1*; test: as above; assay type: cell-based; details: Homo sapiens, second sample from the same patient following high-dose chemotherapy
Method: as §1, §2

[16] = tested on: CLL, untreated, chromosome 17 p del.; test: as above; assay type: cell-based; details: Homo sapiens
Method: as §1, §2

[17] = tested on: CML, untreated; test: as above; assay type: cell-based; details: Homo sapiens
Method: as §1, §2

[18] = tested on: Biphenotypic acute leukemia 1*; test: as above; assay type: cell-based; details: Homo sapiens, second sample from the same patient following high-dose chemotherapy
Method: as §1, §2

[19] = tested on: AML, relapsed s/p HSCT; test: as above; assay type: cell-based; details: Homo sapiens
Method: as §1, §2

[20] = tested on: A459 cells; test: Nude mouse xenograft, non small-cell lung cancer; assay type: in vivo; details: 2.5 mg/kg/day continuous, osmotic diffusion pumps; sections at day 28
Method: FIG. 22A-22C. Granaticin B is Effective Against Multiple Solid Tumors: granaticin B is efficacious against mouse models of melanoma (FIG. 22A), non-small cell lung cancer (FIG. 22B), and ovarian cancer (FIG. 22C). For the ovarian cancer experiments, SCID-Beige mice were injected with 5 million OVCAR3 cells that had been transduced with a GFP-firefly luciferase expressing plasmid (Frattini, M. G. and Brentjens, R. J., unpublished data). These cells were then injected intraperitoneally into 4 cohorts of mice on Day 1. From days 7-14 the mice were injected daily with the indicated concentrations of granaticin B in the intraperitoneal space. […] Nude mice were treated with 2.5 mg/kg/day granaticin B in a continuous fashion using osmotic diffusion pumps. Sections of the treated xenografts are shown after euthanasia at day 28 and H&E staining.

[21] = tested on: JOKE-2 cells; test: Trypan blue viability and caspase-3 assay; assay type: cell-based, human; details: 1 microM
Method: FIGS. 24A-24B. […] The JOKE-2 cell line was derived from a patient with Philadelphia chromosome positive Acute Lymphoblastic Leukemia (Ph-ALL). […] FIG. 24A: Joke-2 cells were grown in the presence of DMSO control or granaticin B (1 microM) for the indicated times and viability was measured after staining a cell sample in trypan blue (Sigma-Aldrich).

[22] = relapsed (first of two such lines, r11)
[23] = relapsed (second of two such lines, r12)

CC1OC2CC(O)C1(O)c1c(O)c3c(c(O)c12)C(=O)C1=C(C3=O)[C@H](C)O[C@H]2CC(=O)O[C@@H]12 (some centres unmarked) [Granaticin A, granaticin A]
cell cycle profile [1]: apoptotic cell death | morphologic appearance [2]: arrested with flattened morphology and peri-nuclear vacuolization | cell cycle progression by FACS [2]: S phase progression is also blocked | IC50 [3]: 140 nM | activity in the cell based assays ([3]; PhALL3.1 cell line): very active | IC50 [4]: 50 nM | IC50 [5]: 1190 nM | IC50 [6]: 1200 nM | IC50 [7]: 610 nM | IC50 [8]: 770 nM | IC50 [9]: 990 nM | IC50 [10]: 560 nM | IC50 [11]: 300 nM | IC50 [12]: 750 nM | IC50 [13]: 720 nM | IC50 [14, 22]: 1200 nM | IC50 [14, 23]: 210 nM | IC50 [15]: 630 nM | IC50 [16]: 460 nM | IC50 [17]: 260 nM | IC50 [18]: 540 nM | IC50 [19]: 1880 nM

CC1OC2CC(O[C@H]3CC[C@H](O)[C@H](C)O3)C1(O)c1c(O)c3c(c(O)c12)C(=O)C1=C(C3=O)[C@H](C)O[C@H]2CC(=O)O[C@@H]12 (some centres unmarked) [Granaticin B, granaticin B]
efficacy in mouse model of non-small cell lung cancer [20]: efficacious | caspase-3 activation ([1]; 1 microM): only activated in HeLa cells | cell cycle profile [1]: apoptotic cell death | morphologic appearance [2]: nuclear blebbing and cell death | cell cycle progression by FACS [2]: Induces Cell Cycle Arrest | IC50 [3]: 30 nM | IC50 [4]: 20 nM | IC50 [5]: 210 nM | IC50 [6]: 100 nM | IC50 [7]: 380 nM | caspase-3 activation [21]: only activated in cells exposed to granaticin B | effect on viability (trypan blue) [21]: very effective | IC50 [8]: 140 nM | IC50 [9]: 490 nM | IC50 [10]: 190 nM | IC50 [11]: 40 nM | IC50 [12]: 110 nM | IC50 [13]: 180 nM | IC50 [14, 22]: 100 nM | IC50 [14, 23]: 50 nM | IC50 [15]: 100 nM | IC50 [16]: 310 nM | IC50 [17]: 80 nM | IC50 [18]: 100 nM | IC50 [19]: 620 nM
